# Legend:
# [1] = biological target: T1, Cyclooxygenase (Rattus norvegicus, UniProt P35355+Q63921)
# T1 sequence (P35355 whole entry): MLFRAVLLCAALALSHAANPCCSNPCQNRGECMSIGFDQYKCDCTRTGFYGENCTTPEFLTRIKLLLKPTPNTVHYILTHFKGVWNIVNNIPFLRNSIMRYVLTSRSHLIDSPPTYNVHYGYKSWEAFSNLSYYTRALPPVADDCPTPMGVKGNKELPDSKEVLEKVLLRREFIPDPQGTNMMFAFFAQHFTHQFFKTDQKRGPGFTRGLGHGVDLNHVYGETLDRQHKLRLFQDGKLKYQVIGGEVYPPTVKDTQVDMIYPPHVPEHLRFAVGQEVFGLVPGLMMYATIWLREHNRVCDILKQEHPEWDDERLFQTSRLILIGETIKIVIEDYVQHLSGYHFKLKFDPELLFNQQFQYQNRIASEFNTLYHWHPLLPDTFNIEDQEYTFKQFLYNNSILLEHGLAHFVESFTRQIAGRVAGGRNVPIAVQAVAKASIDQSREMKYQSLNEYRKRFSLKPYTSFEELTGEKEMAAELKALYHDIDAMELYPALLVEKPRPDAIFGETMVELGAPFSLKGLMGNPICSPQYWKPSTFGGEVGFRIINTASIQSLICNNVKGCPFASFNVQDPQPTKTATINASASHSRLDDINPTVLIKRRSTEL
# T1 sequence (Q63921 whole entry): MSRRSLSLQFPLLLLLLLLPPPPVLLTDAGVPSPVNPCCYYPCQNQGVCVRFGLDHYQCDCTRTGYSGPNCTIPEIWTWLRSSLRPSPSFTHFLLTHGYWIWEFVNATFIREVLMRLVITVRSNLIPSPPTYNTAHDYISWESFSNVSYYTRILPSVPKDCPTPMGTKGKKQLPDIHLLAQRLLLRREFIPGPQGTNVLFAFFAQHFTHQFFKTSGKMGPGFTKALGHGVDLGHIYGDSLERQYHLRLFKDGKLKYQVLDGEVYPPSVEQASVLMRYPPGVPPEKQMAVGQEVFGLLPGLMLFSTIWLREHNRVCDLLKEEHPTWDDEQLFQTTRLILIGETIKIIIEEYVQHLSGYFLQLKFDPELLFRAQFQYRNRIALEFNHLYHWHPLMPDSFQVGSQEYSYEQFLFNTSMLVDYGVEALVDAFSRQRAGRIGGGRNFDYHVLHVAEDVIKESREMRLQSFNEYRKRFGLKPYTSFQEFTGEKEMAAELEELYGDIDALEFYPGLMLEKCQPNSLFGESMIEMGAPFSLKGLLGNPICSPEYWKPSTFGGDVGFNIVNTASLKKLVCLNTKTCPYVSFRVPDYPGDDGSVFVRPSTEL
# Description: In vitro inhibitory effect on production of prostaglandin E2 (PGE2) in rat synovial cells.
# [2] = system: THP-1; experiment: In vitro effect on production of lipopolysaccharide (LPS) -induced IL1-beta in human THP-1 cells; type: functional, cell-based
# [3] = species: Rattus norvegicus; experiment: In vitro effect on production of calcium ionophore (A23187) -induced Leukotriene B4 (LTB4) in rat peritoneal cells; type: functional, cell-based
# [4] = system: Rattus norvegicus; experiment: Percent inhibition of carrageenan-induced foot-pad edema at 30 mg/kg po; type: functional
# [5] = species: Rattus norvegicus; experiment: Inhibitory effect for increase in plasma prostaglandin E2 (PGE2) level after arachidonic acid (AA) injection into, COX-1 non-lipopolysaccharide-treated rats; type: functional
# [6] = Inhibitory effect on production of (COX-2) prostaglandin E2 (PGE2) in human IL1-beta stimulated synovial cells; type: functional
# [7] = species: Rattus norvegicus; experiment: Inhibitory effect for increase in plasma prostaglandin E2 (PGE2) level after arachidonic acid (AA) injection into COX-2 lipopolysaccharide-treated rats; type: functional
# [8] = species: Homo sapiens; experiment: Inhibitory effect on production of (COX-1) thromboxane B2 (TXB2) in human platelet cells; type: functional, cell-based
# [9] = system: THP-1; experiment: In vitro inhibitory effect on production of, lipopolysaccharide (LPS) -induced IL1-beta in human THP-1 cells; type: functional, cell-based
# [10] = species: Rattus norvegicus; experiment: In vitro inhibitory effect on production of, Prostaglandin E2 (PGE2) in rat synovial cells; type: functional
# [11] = species: Rattus norvegicus; experiment: In vitro inhibitory effect on production of, calcium ionophore (A23187) -induced Leukotriene B4 (LTB4) in rat peritoneal cells; type: functional, cell-based
# [12] = species: Rattus norvegicus; experiment: Inhibitory effect for increase in plasma prostaglandin E2 (PGE2) level after arachidonic acid (AA) injection into COX-1 non-lipopolysaccharide-treated rats; type: functional
# [13] = species: Rattus norvegicus; experiment: Inhibitory effect for increase in plasma prostaglandin E2 (PGE2) level after arachidonic acid (AA) injection intoCOX-1 non-lipopolysaccharide-treated rats; type: functional
# [14] = system: Rattus norvegicus; experiment: Dose required for 30% inhibition of carrageenan-induced edema; type: functional
# [15] = species: Rattus norvegicus; experiment: Dose required for 30% inhibition of adjuvant-induced arthritis; type: functional
# [16] = species: Rattus norvegicus; experiment: Dose required for Ulcerogenic effect; type: functional
# [17] = species: Rattus norvegicus
# Description: Lengths of bleeding ulcer of drug-administered group
# [18] = system: Rattus norvegicus; experiment: Percent inhibition of adjuvant-induced arthritis at 10 mg/kg po; type: functional
SMILES,IC50 [1] [µM],IC50 [2] [µM],IC50 [3] [µM],inhibition in vivo at 30 mg/kg [4] [%],further results
CC(C)(C)c1cc(/C=C2/CCN(c3ccc(Cl)cc3)S2(=O)=O)cc(C(C)(C)C)c1O,< 0.001,–,–,–,–
CC(C)(C)c1cc(/C=C2\CCN(c3ccc(Cl)cc3)S2(=O)=O)cc(C(C)(C)C)c1O,< 0.001,> 100,21,6.3,–
CS(=O)(=O)Nc1ccc([N+](=O)[O-])cc1OC1CCCCC1 [NS-398],–,–,–,–,ED50 [5]: > 30 mg/kg; IC50 [6]: 0.0019 µM; ED50 [7]: 1 mg/kg; IC50 [8]: 6.8 µM
CC(C)N1CC/C(=C\c2cc(C(C)(C)C)c(O)c(C(C)(C)C)c2)S1(=O)=O,0.32,–,–,–,–
CC(C)(C)c1cc(/C=C2/CCNS2(=O)=O)cc(C(C)(C)C)c1O,< 0.001,27,1.8,10.8,–
CC(C)(C)c1cc(/C=C2\CCN(CCO)S2(=O)=O)cc(C(C)(C)C)c1O,0.24,–,–,–,–
CCN1CC/C(=C\c2cc(OC)c(O)c(OC)c2)S1(=O)=O,–,–,–,–,IC50 [9]: > 100 µM; IC50 [10]: > 1 µM; IC50 [11]: 2.6 µM
COc1ccc2c(c1)c(CC(=O)O)c(C)n2C(=O)c1ccc(Cl)cc1 [INDOMETHACIN],–,> 100,> 100,–,ED50 [12]: 0.37 mg/kg; ED50 [13]: 0.37 mg/kg; ED30 [14]: 0.8 mg/kg; ED30 [15]: 0.06 mg/kg; Dose [16]: 30 mg/kg
NC(=O)N1C(=O)/C(=C(\O)c2cccs2)c2cc(Cl)ccc21 [TENIDAP],0.053,16,45,–,ED50 [12]: 0.025 mg/kg; ED30 [14]: 4 mg/kg; Ulcer index [17]: 12.9 mm; ED30 [15]: 1 mg/kg; ED50 [7]: 0.05 mg/kg; Dose [16]: 30 mg/kg
CC(C)(C)c1cc(/C=C2\CCN(C(=O)NO)S2(=O)=O)cc(C(C)(C)C)c1O,0.024,20,6,14.9,–
CC(C)(C)c1cc(/C=C2\CCCNS2(=O)=O)cc(C(C)(C)C)c1O,0.0062,56,74,14.7,–
CCN1CC/C(=C\c2cc(C)c(O)c(C)c2)S1(=O)=O,–,–,–,–,IC50 [9]: > 100 µM; IC50 [10]: > 1 µM; IC50 [11]: 21 µM
CON(C)C(=O)N1CC/C(=C\c2cc(C(C)(C)C)c(O)c(C(C)(C)C)c2)S1(=O)=O,0.1,> 100,28,11.2,–
CC(C)(C)c1cc(/C=C2\CCN(c3ccncc3)S2(=O)=O)cc(C(C)(C)C)c1O,0.41,–,–,–,–
CCN1CC/C(=C\c2ccc(O)cc2)S1(=O)=O,–,–,–,–,IC50 [9]: > 100 µM; IC50 [10]: > 1 µM; IC50 [11]: > 100 µM
CCCN1CC/C(=C\c2cc(C(C)(C)C)c(O)c(C(C)(C)C)c2)S1(=O)=O,0.013,19,1.9,0.3,inhibition in vivo at 10 mg/kg [18]: 11.4%
CC(C)(C)c1cc(/C=C2\CCN(c3cccnc3)S2(=O)=O)cc(C(C)(C)C)c1O,0.32,–,–,–,–
CON1CC/C(=C/c2cc(C(C)(C)C)c(O)c(C(C)(C)C)c2)S1(=O)=O,0.0025,20,1.5,6,inhibition in vivo at 10 mg/kg [18]: 5%
CN1CC/C(=C/c2cc(C(C)(C)C)c(O)c(C(C)(C)C)c2)S1(=O)=O,< 0.001,29,1.8,25.2,–

# — ChEMBL document CHEMBL1133187, “Novel antiarthritic agents with 1,2-isothiazolidine-1,1-dioxide (gamma-sultam) skeleton: cytokine suppressive dual inhibitors of cyclooxygenase-2 and 5-lipoxygenase” (J Med Chem, 2000)
